In paper PMC11352961, “Peptide dendrimers transfecting CRISPR/Cas9 plasmid DNA: optimization and mechanism” (RSC Chemical Biology, 2024):
Bridge positions count the residues as written; N and C are the ends. Square brackets hold non-standard residues; d marks the D form. Side chains are listed from the residue outwards. Peptide text beside a SMILES is read from it. I, II: the chains in the order shown. * marks the point of attachment. Stearoyl = CCCCCCCCCCCCCCCCCC(=O)*; Palmitoyl = CCCCCCCCCCCCCCCC(=O)*

Legend:
Assay type in all cases: cell-based
HEK293 cells [1] = experiment: Cell viability by PrestoBlue assay after transfection, HEK cells; conditions: 4 h
HeLa cells = experiment: Cell viability by PrestoBlue assay after transfection, HeLa cells; conditions: 4 h
HEK293 cells [2] = conditions: 1 h

For `CCCCCCCCCCCCCCCCCC(=O)NCCCC[C@@H](NC(=O)[C@@H](CCCCNC(=O)[C@@H](CC(C)C)NC(=O)[C@@H](CCCCN)NC(=O)[C@@H](CCCCNC(=O)[C@@H](CC(C)C)NC(=O)[C@@H](CCCCN)NC(=O)[C@@H](CCCCNC(=O)[C@@H](CC(C)C)NC(=O)[C@H](N)CCCCN)NC(=O)[C@@H](CC(C)C)NC(=O)[C@H](N)CCCCN)NC(=O)[C@@H](CC(C)C)NC(=O)[C@@H](CCCCN)NC(=O)[C@@H](CCCCNC(=O)[C@@H](CC(C)C)NC(=O)[C@H](N)CCCCN)NC(=O)[C@@H](CC(C)C)NC(=O)[C@H](N)CCCCN)NC(=O)[C@@H](CC(C)C)NC(=O)[C@@H](CCCCN)NC(=O)[C@@H](CCCCNC(=O)[C@@H](CC(C)C)NC(=O)[C@@H](CCCCN)NC(=O)[C@@H](CCCCNC(=O)[C@@H](CC(C)C)NC(=O)[C@H](N)CCCCN)NC(=O)[C@@H](CC(C)C)NC(=O)[C@H](N)CCCCN)NC(=O)[C@@H](CC(C)C)NC(=O)[C@@H](CCCCN)NC(=O)[C@@H](CCCCNC(=O)[C@@H](CC(C)C)NC(=O)[C@H](N)CCCCN)NC(=O)[C@@H](CC(C)C)NC(=O)[C@H](N)CCCCN)C(N)=O` [Z26] (I: H-[dK][dL][dK]([dL-dK])[dK][dL][dK][dK][dL][dK][dK](Stearoyl)-NH2 / II: H-[dK][dL][dK]([dL-dK])[dK][dL][dK][dK][dL] / III: H-[dK][dL][dK]([dL-dK])[dK][dL] / IV: H-[dK][dL][dK]([dL-dK])[dK][dL]; amide I:6-IV:C, I:9-II:C, II:6-III:C), the “% viability HEK cells” value (HEK293 cells [1]) was 91.3 ± 0.2%, the “% viability HeLa cells” value (HeLa cells) was 91 ± 5% and the “transfection of HEK cells with protease inhibition” value (HEK293 cells [2]) was 51%.

`CCCCCCCCCCCCCCCCCC(=O)NCCCC[C@@H](NC(=O)[C@@H](CCCCNC(=O)[C@@H](CC(C)C)NC(=O)[C@@H](CC(C)C)NC(=O)[C@@H](CCCCNC(=O)[C@@H](CC(C)C)NC(=O)[C@@H](CCCNC(=N)N)NC(=O)[C@@H](CCCCNC(=O)[C@@H](CC(C)C)NC(=O)[C@H](N)CCCNC(=N)N)NC(=O)[C@@H](CC(C)C)NC(=O)[C@H](N)CCCNC(=N)N)NC(=O)[C@@H](CC(C)C)NC(=O)[C@@H](CCCNC(=N)N)NC(=O)[C@@H](CCCCNC(=O)[C@@H](CC(C)C)NC(=O)[C@H](N)CCCNC(=N)N)NC(=O)[C@@H](CC(C)C)NC(=O)[C@H](N)CCCNC(=N)N)NC(=O)[C@@H](CC(C)C)NC(=O)[C@@H](CC(C)C)NC(=O)[C@@H](CCCCNC(=O)[C@@H](CC(C)C)NC(=O)[C@@H](CCCNC(=N)N)NC(=O)[C@@H](CCCCNC(=O)[C@@H](CC(C)C)NC(=O)[C@H](N)CCCNC(=N)N)NC(=O)[C@@H](CC(C)C)NC(=O)[C@H](N)CCCNC(=N)N)NC(=O)[C@@H](CC(C)C)NC(=O)[C@@H](CCCNC(=N)N)NC(=O)[C@@H](CCCCNC(=O)[C@@H](CC(C)C)NC(=O)[C@H](N)CCCNC(=N)N)NC(=O)[C@@H](CC(C)C)NC(=O)[C@H](N)CCCNC(=N)N)C(N)=O` [Z36] (I: H-[dR][dL][dK]([dL-dR])[dR][dL][dK][dL][dL][dK][dK](Stearoyl)-NH2 / II: H-[dR][dL][dK]([dL-dR])[dR][dL][dK][dL][dL] / III: H-[dR][dL][dK]([dL-dR])[dR][dL] / IV: H-[dR][dL][dK]([dL-dR])[dR][dL]; amide I:6-IV:C, I:9-II:C, II:6-III:C) was tested, and the “% viability HEK cells” value (HEK293 cells [1]) was 87 ± 2% and the “% viability HeLa cells” value (HeLa cells) was 92 ± 6%.

For `CCCCCCCCCCCCCCCCCC(=O)NCCCC[C@@H](NC(=O)[C@@H](CCCCNC(=O)[C@@H](CC(C)C)NC(=O)[C@@H](CCCNC(=N)N)NC(=O)[C@@H](CCCCNC(=O)[C@@H](CC(C)C)NC(=O)[C@@H](CCCNC(=N)N)NC(=O)[C@@H](CCCCNC(=O)[C@@H](CC(C)C)NC(=O)[C@H](N)CCCNC(=N)N)NC(=O)[C@@H](CC(C)C)NC(=O)[C@H](N)CCCNC(=N)N)NC(=O)[C@@H](CC(C)C)NC(=O)[C@@H](CCCNC(=N)N)NC(=O)[C@@H](CCCCNC(=O)[C@@H](CC(C)C)NC(=O)[C@H](N)CCCNC(=N)N)NC(=O)[C@@H](CC(C)C)NC(=O)[C@H](N)CCCNC(=N)N)NC(=O)[C@@H](CC(C)C)NC(=O)[C@@H](CCCNC(=N)N)NC(=O)[C@@H](CCCCNC(=O)[C@@H](CC(C)C)NC(=O)[C@@H](CCCNC(=N)N)NC(=O)[C@@H](CCCCNC(=O)[C@@H](CC(C)C)NC(=O)[C@H](N)CCCNC(=N)N)NC(=O)[C@@H](CC(C)C)NC(=O)[C@H](N)CCCNC(=N)N)NC(=O)[C@@H](CC(C)C)NC(=O)[C@@H](CCCNC(=N)N)NC(=O)[C@@H](CCCCNC(=O)[C@@H](CC(C)C)NC(=O)[C@H](N)CCCNC(=N)N)NC(=O)[C@@H](CC(C)C)NC(=O)[C@H](N)CCCNC(=N)N)C(=O)N[C@H](CS)C(N)=O` [Z22] (I: H-[dR][dL][dK]([dL-dR])[dR][dL][dK][dR][dL][dK][dK](Stearoyl)[dC]-NH2 / II: H-[dR][dL][dK]([dL-dR])[dR][dL][dK][dR][dL] / III: H-[dR][dL][dK]([dL-dR])[dR][dL] / IV: H-[dR][dL][dK]([dL-dR])[dR][dL]; amide I:6-IV:C, I:9-II:C, II:6-III:C), the “% viability HEK cells” value (HEK293 cells [1]) was 64 ± 4% and the “% viability HeLa cells” value (HeLa cells) was 92 ± 7%.

`CCCCCCCCCCCCCCCCCC(=O)NCCCC[C@@H](NC(=O)[C@@H](CCCCNC(=O)[C@@H](CC(C)C)NC(=O)[C@@H](CCCCN)NC(=O)[C@@H](CCCCNC(=O)[C@@H](CC(C)C)NC(=O)[C@@H](CCCCN)NC(=O)[C@@H](CCCCNC(=O)[C@@H](CC(C)C)NC(=O)[C@H](N)CCCCN)NC(=O)[C@@H](CC(C)C)NC(=O)[C@H](N)CCCCN)NC(=O)[C@@H](CC(C)C)NC(=O)[C@@H](CCCCN)NC(=O)[C@@H](CCCCNC(=O)[C@@H](CC(C)C)NC(=O)[C@H](N)CCCCN)NC(=O)[C@@H](CC(C)C)NC(=O)[C@H](N)CCCCN)NC(=O)[C@@H](CC(C)C)NC(=O)[C@@H](CCCCN)NC(=O)[C@@H](CCCCNC(=O)[C@@H](CC(C)C)NC(=O)[C@@H](CCCCN)NC(=O)[C@@H](CCCCNC(=O)[C@@H](CC(C)C)NC(=O)[C@H](N)CCCCN)NC(=O)[C@@H](CC(C)C)NC(=O)[C@H](N)CCCCN)NC(=O)[C@@H](CC(C)C)NC(=O)[C@@H](CCCCN)NC(=O)[C@@H](CCCCNC(=O)[C@@H](CC(C)C)NC(=O)[C@H](N)CCCCN)NC(=O)[C@@H](CC(C)C)NC(=O)[C@H](N)CCCCN)C(=O)N[C@H](CS)C(N)=O` [Z20] (I: H-[dK][dL][dK]([dL-dK])[dK][dL][dK][dK][dL][dK][dK](Stearoyl)[dC]-NH2 / II: H-[dK][dL][dK]([dL-dK])[dK][dL][dK][dK][dL] / III: H-[dK][dL][dK]([dL-dK])[dK][dL] / IV: H-[dK][dL][dK]([dL-dK])[dK][dL]; amide I:6-IV:C, I:9-II:C, II:6-III:C) was tested, and the “% viability HEK cells” value (HEK293 cells [1]) was 85 ± 9% and the “% viability HeLa cells” value (HeLa cells) was 85 ± 9%.

`CCCCCCCCCCCCCCCCCC(=O)NCCCC[C@@H](NC(=O)[C@@H](CCCCNC(=O)CCCCCCCCCCCCCCCCC)NC(=O)[C@@H](CCCCNC(=O)[C@@H](CC(C)C)NC(=O)[C@@H](CCCCN)NC(=O)[C@@H](CCCCNC(=O)[C@@H](CC(C)C)NC(=O)[C@@H](CCCCN)NC(=O)[C@@H](CCCCNC(=O)[C@@H](CC(C)C)NC(=O)[C@H](N)CCCCN)NC(=O)[C@@H](CC(C)C)NC(=O)[C@H](N)CCCCN)NC(=O)[C@@H](CC(C)C)NC(=O)[C@@H](CCCCN)NC(=O)[C@@H](CCCCNC(=O)[C@@H](CC(C)C)NC(=O)[C@H](N)CCCCN)NC(=O)[C@@H](CC(C)C)NC(=O)[C@H](N)CCCCN)NC(=O)[C@@H](CC(C)C)NC(=O)[C@@H](CCCCN)NC(=O)[C@@H](CCCCNC(=O)[C@@H](CC(C)C)NC(=O)[C@@H](CCCCN)NC(=O)[C@@H](CCCCNC(=O)[C@@H](CC(C)C)NC(=O)[C@H](N)CCCCN)NC(=O)[C@@H](CC(C)C)NC(=O)[C@H](N)CCCCN)NC(=O)[C@@H](CC(C)C)NC(=O)[C@@H](CCCCN)NC(=O)[C@@H](CCCCNC(=O)[C@@H](CC(C)C)NC(=O)[C@H](N)CCCCN)NC(=O)[C@@H](CC(C)C)NC(=O)[C@H](N)CCCCN)C(N)=O` [Z27] (I: H-[dK][dL][dK]([dL-dK])[dK][dL][dK][dK][dL][dK][dK](Stearoyl)[dK](Stearoyl)-NH2 / II: H-[dK][dL][dK]([dL-dK])[dK][dL][dK][dK][dL] / III: H-[dK][dL][dK]([dL-dK])[dK][dL] / IV: H-[dK][dL][dK]([dL-dK])[dK][dL]; amide I:6-IV:C, I:9-II:C, II:6-III:C) was tested, and the “% viability HEK cells” value (HEK293 cells [1]) was 74.8 ± 0.7% and the “% viability HeLa cells” value (HeLa cells) was 94 ± 5%.

For `CCCCCCCCCCCCCCCC(=O)NCCCC[C@@H](NC(=O)[C@@H](CCCCNC(=O)[C@@H](CC(C)C)NC(=O)[C@@H](CCCCN)NC(=O)[C@@H](CCCCNC(=O)[C@@H](CC(C)C)NC(=O)[C@@H](CCCCN)NC(=O)[C@@H](CCCCNC(=O)[C@@H](CC(C)C)NC(=O)[C@H](N)CCCCN)NC(=O)[C@@H](CC(C)C)NC(=O)[C@H](N)CCCCN)NC(=O)[C@@H](CC(C)C)NC(=O)[C@@H](CCCCN)NC(=O)[C@@H](CCCCNC(=O)[C@@H](CC(C)C)NC(=O)[C@H](N)CCCCN)NC(=O)[C@@H](CC(C)C)NC(=O)[C@H](N)CCCCN)NC(=O)[C@@H](CC(C)C)NC(=O)[C@@H](CCCCN)NC(=O)[C@@H](CCCCNC(=O)[C@@H](CC(C)C)NC(=O)[C@@H](CCCCN)NC(=O)[C@@H](CCCCNC(=O)[C@@H](CC(C)C)NC(=O)[C@H](N)CCCCN)NC(=O)[C@@H](CC(C)C)NC(=O)[C@H](N)CCCCN)NC(=O)[C@@H](CC(C)C)NC(=O)[C@@H](CCCCN)NC(=O)[C@@H](CCCCNC(=O)[C@@H](CC(C)C)NC(=O)[C@H](N)CCCCN)NC(=O)[C@@H](CC(C)C)NC(=O)[C@H](N)CCCCN)C(N)=O` [Z29] (I: H-[dK][dL][dK]([dL-dK])[dK][dL][dK][dK][dL][dK][dK](Palmitoyl)-NH2 / II: H-[dK][dL][dK]([dL-dK])[dK][dL][dK][dK][dL] / III: H-[dK][dL][dK]([dL-dK])[dK][dL] / IV: H-[dK][dL][dK]([dL-dK])[dK][dL]; amide I:6-IV:C, I:9-II:C, II:6-III:C), the “% viability HEK cells” value (HEK293 cells [1]) was 87 ± 1% and the “% viability HeLa cells” value (HeLa cells) was 95 ± 5%.
